Laboratory results as given in publication PMC6272251, “Two New Phenolic Glucosides from Lagerstroemia speciosa” (Molecules, 2015).

Experiments:
[1] = system: nitric oxide production in lipopolysaccharide-treated RAW264.7 cells; test: Inhibition of LPS-induced NO production in RAW264.7 cells (Griess reagent); assay type: cell-based; conditions: Mus musculus, RAW 264.7 cells, compounds 30 min then LPS 1.0 μg/mL for 24 h
Method: RAW264.7 cells were plated at 1 × 10^6 cells/mL and incubated for 18 h. After incubation, the cells were treated with Compounds 1–12 for 30 min and then continuously incubated with LPS (1.0 μg/mL) for 24 h. The inhibitory effects of the isolated compounds on NO production were evaluated by using the Griess reagent and an EIA kit to determine the NO levels, as described previously.

RAW264.7 cells = test: Cell viability test (MTT assay); assay type: cell-based; conditions: Mus musculus, RAW 264.7 cells, compounds 25 to 150 μM, 24 h
Method: RAW264.7 cells were plated at 1 × 10^6 cells/mL and incubated for 18 h followed by the addition of Compounds 1–12 to the cells (25 to 150 μM), and the cells were incubated for 24 h. The cytotoxicity was evaluated by an MTT (3-(4,5-dimethylthiazol-2-yl)-2,5-diphenyltetrazolium bromide) assay. The […] of MTT solution (10 mg/mL in phosphate buffered saline, pH 7.4) were added to the cells 3 h prior to the end of the culture period. The incubation was terminated by the addition of 15% sodium dodecyl sulfate to each well to solubilize the formazan. The absorbance was measured by a microplate reader at 570 nm (OD570-630).

Row | SMILES | IC50 [1] | IC50 (RAW264.7 cells)
1 | O=C(/C=C/c1ccc(O)c(O)c1)O[C@@H]1C[C@](O)(C(=O)O)C[C@@H](O)[C@H]1O [Compound 11, chlorogenic acid] | 81.2 ± 0.7 µM | > 100 µM
2 | COc1c(O)cc2c(=O)oc3c(O)c(O)cc4c(=O)oc1c2c34 [Compound 10, 3-O-methylellagic acid] | 78 ± 2.3 µM | > 100 µM
3 | COc1cc(C(O)C(O)CO)ccc1OC1OC(COC(=O)C=Cc2ccc(O)c(O)c2)C(O)C(O)C1O [Compound 2, 1-O-(7S,8R)-guaiacylglycerol-(6-O-E-caffeoyl)-β-D-glucopyranoside] | 71.1 ± 1.9 µM | 87.7 ± 3.5 µM
4 | COc1cc(CCCO)cc(OC)c1O[C@@H]1O[C@H](CO)[C@@H](O)[C@H](O)[C@H]1O [Compound 7, dihydrosyringin] | 76.2 ± 0.6 µM | > 100 µM
5 | O=c1c(O[C@@H]2O[C@H](CO)[C@H](O)[C@H](O)[C@H]2O)c(-c2ccc(O)c(O)c2)oc2cc(O)cc(O)c12 [Compound 3, quercetin-3-O-β-D-galactopyranoside] | 81.9 ± 1.9 µM | > 100 µM
6 | O=C(C=Cc1ccc(O)c(O)c1)OCC1OC(Oc2c(-c3ccc(O)c(O)c3)oc3cc(O)cc(O)c3c2=O)C(O)C(O)C1O [Compound 4, quercetin-3-O-(6''-O-E-caffeoyl)-β-D-galactopyranoside] | 83.3 ± 0.9 µM | > 100 µM

More lines, main results first:

Row | IC50 [1] | SMILES | IC50 (RAW264.7 cells)
7 | 81.8 ± 1.3 µM | O=C(C=Cc1ccc(O)c(O)c1)OCC1OC(OCc2ccccc2)C(O)C(O)C1O [Compound 1, 1-O-benzyl-6-O-E-caffeoyl-β-D-glucopyranoside] | > 100 µM
8 | 69.5 ± 1.4 µM | O=C(C=Cc1ccc(O)c(O)c1)OCC1OC(OC(=O)C=Cc2ccc(O)c(O)c2)C(O)C(O)C1O [Compound 5, 1,6-di-O-E-caffeoyl-β-D-glucopyranoside] | > 100 µM
9 | 70.7 ± 1.2 µM | O=C(C=Cc1ccc(O)c(O)c1)OC1OC(CO)C(O)C(O)C1O [Compound 8, 1-O-E-caffeoyl-β-D-glucopyranoside] | 84.8 ± 5 µM
